Common to all, as to format: biochemical
Experiment [1] addresses T1, Taq (Thermus aquaticus, UniProt P19821). Briefly: Hot-start PCR of CCR5 gene (500 bp amplicon) with human genomic DNA as template. As to conditions: CCR5 target; for 500 bp yield: compared with no hot-start (GoTaq® DNA Polymerase). An excerpt: Testing of Human Genomic Templates. FIG. 11 includes a representative image of an agarose gel used to evaluate the CCR5 gene amplification products of various hot-start PCR reactions performed with and without two different polymerase inhibitors (compound #7124 and compound #7261) and using human genomic DNA as a template. The target amplicon is 500 bp, and without the use of hot-start, there is a significant amount of primer dimer. With compound #7124 and compound #7261, the 500 bp yield increased, but primer dimer amounts remained (compare to GoTaq® DNA Polymerase treatment for no hot-start and GoTaq® Hot-Start DNA Polymerase with an antibody-mediated hot-start). Reaction components are provided in Table 2 below; the following cycling methods were used: [(22° C. for 90 min, 94° C. for 2 min) 1 cycle, (92° C. for 30 sec, 68° C. for 2 min) 45 cycles, (72° C. for 5 min) 1 cycle, 4° C. soak].

In experiment [2] the target is T1, Taq. Briefly: Hot-start PCR of Human Dystrophin Alu 7-2 gene (320 bp amplicon) with human genomic DNA as template. As to conditions: HD Alu 7-2 target; for secondary products (seen as a smear): at certain concentrations; for 320 bp yield: human genomic DNA, compared with no hot-start. Here is the method: FIG. 12 includes a representative image of an agarose gel used to evaluate the Human Dystrophin Alu-72 gene amplification products of various hot-start PCR reactions performed with and without two different polymerase inhibitors (compound #7124 and compound #7261) and using human genomic DNA as a template. The target amplicon is 320 bp, and without hot-start, there is less yield. […] Reaction components are provided in Table 2 below; the following cycling methods were used: [(22° C. for 90 min, 94° C. for 2 min) 1 cycle, (94° C. for 50 sec, 59° C. for 50 sec, 68° C. for 2 min) 42 cycles, 4° C. soak].

For experiment [3], the target named is Taq DNA Polymerase (Thermus aquaticus, UniProt P19821). Briefly: Activated calf thymus DNA polymerase activity assay (radioactive incorporation) at 22° C. Here is the method: Activity assays were used to test the concentrations of small molecule polymerase inhibitors in specific reaction conditions to determine inhibition efficacy. Corresponding IC50 values were also determined for the compounds. Activity assays were also used to test the temperatures or temperature ranges at which the reactions are inhibited by the compounds.
Chain of Taq DNA Polymerase (P19821 whole entry): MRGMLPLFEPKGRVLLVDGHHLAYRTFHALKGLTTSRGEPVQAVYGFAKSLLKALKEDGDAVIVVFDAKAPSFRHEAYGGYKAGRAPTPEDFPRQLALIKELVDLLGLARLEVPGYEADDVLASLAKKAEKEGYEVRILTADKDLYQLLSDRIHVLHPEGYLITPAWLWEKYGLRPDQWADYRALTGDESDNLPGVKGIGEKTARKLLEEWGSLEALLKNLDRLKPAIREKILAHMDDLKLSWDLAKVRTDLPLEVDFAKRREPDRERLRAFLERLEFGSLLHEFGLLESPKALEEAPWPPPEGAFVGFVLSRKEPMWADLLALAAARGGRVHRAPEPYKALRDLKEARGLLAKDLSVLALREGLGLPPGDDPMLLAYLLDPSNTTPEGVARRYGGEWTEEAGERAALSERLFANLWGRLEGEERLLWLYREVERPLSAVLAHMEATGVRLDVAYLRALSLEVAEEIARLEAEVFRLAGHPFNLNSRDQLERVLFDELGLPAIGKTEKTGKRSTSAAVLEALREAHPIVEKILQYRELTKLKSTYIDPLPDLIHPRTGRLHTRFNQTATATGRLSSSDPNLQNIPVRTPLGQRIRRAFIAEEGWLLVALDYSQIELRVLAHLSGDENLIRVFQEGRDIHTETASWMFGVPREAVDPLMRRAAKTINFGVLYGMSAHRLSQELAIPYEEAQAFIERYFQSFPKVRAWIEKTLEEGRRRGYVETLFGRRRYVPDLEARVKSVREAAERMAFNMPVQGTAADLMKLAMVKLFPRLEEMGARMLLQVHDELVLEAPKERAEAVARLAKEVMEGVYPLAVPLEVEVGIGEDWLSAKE
Exemplary activity assays can be carried out according to a variety of methods. For example, a DNA polymerase activity assay monitoring radioactive incorporation where “activated” calf thymus or salmon sperm DNA is used as the DNA substrate. Along with the DNA substrate, the reactions minimally contain a buffer (e.g., GoTaq® buffer), magnesium, dNTPs, and polymerase. Reactions were stopped, and DNA was precipitated by ice-cold TCA (tricholoracetic acid), incubated on ice for at least 10 minutes, filtered using GF/C filters, and radioactive incorporation in precipitable DNA (on filter) measured by scintillation counting. (See, e.g., Apospian & Kornberg. (1962) JBC 237:519-525.; Chien et al. (1976) J. Bact. 127:1550-1557.)
FIG. 7 includes a representation of a polymerase activity assay carried out at 22° C., where an inhibitor (i.e. compound #7124) is titrated. FIG. 7 is an example of an activity assay where IC50 can be determined. […] Activated calf thymus DNA activity assay was used in these experiments. […]

Experiment [4] deals with T2, GoTaq® DNA Polymerase (Taq DNA polymerase) (Thermus aquaticus, UniProt P19821).
T2 construct: purchased
T2 sequence (P19821 whole entry): as above
Briefly: Hot-start PCR of 1.5 kb fragment of the Corynephage omega gene from plasmid DNA, after 22° C. pre-incubation, agarose gel read-out. The settings on record: '25 to 150 μM or greater' for the derivatives. Here is the method:
When carried out using hot-start conditions, the polymerase (e.g., Taq polymerase) was inhibited at lower temperatures, but activated at the start of amplification when temperatures increased to denature the DNA (e.g., 95° C.); the amplification produced a single product approximately 1.5 kb in size. When carried out using non-hot-start conditions, the DNA polymerase was not inhibited at lower temperatures, and amplification produced a product approximately 400 bp in size (among other secondary products), and the 1.5 kb fragment was transiently present. To test the ability of the thermally-labile small molecule polymerase to inhibit DNA polymerase (e.g., Taq DNA polymerase) activity, the amplification reactions were incubated at 22° C. for 1.5 to 6 hours or longer prior to performing PCR amplification.
The amplifications were set up at room temperature. The thermally-labile small molecule polymerase inhibitor(s) were titrated (concentrations will depend on exact compound, enzyme being inhibited, detergent concentration, and other buffer conditions) into reactions. For these experiments, the following composition were used: 1× GoTaq® Colorless Flexi Buffer, 2.5 mM MgCl2, 200 μM each dNTP, 0.4 μM each primer, 0.025 U/μl GoTaq® DNA Polymerase, 500 pg plasmid DNA and nuclease-free water to bring it to a 25 μl reaction. […]

T1 sequence (P19821 whole entry): as above

`CCCCCCCCCCCCC(OC(=O)NCCCS(=O)(=O)[O-])c1ccc(OC)cc1.[Na+]` (centres unmarked) [compound #7124, Sodium 3-((((1-(4-methoxyphenyl)tridecyl)oxy)carbonyl)amino)propane-1-sulfonate]: in experiment [1], the primer dimer amounts entry is listed as “remained” and the 500 bp yield result is given as “increased”. For the same compound, in experiment [2], the “secondary products (seen as a smear)” value is given as “dramatically decreased” and the 320 bp yield result was “increased”. The “inhibition ultimately reached as concentration increased” value in experiment [3] (high inhibitor concentration) is 100%. In experiment [3] (titration of inhibitor, calculated from graph (FIG. 7)), the concentration for half-maximal inhibition (IC50) was around 150 µM.

As for `CCCCCCCCCCCCC(OC(=O)NCCCS(=O)(=O)[O-])c1ccc(Cl)o1.[Na+]` (centres unmarked) [compound #7261, Sodium 3-((((1-(5-chlorofuran-2-yl)tridecyl)oxy)carbonyl)amino)propane-1-sulfonate], in experiment [1], the primer dimer amounts result is listed as “remained” and the 500 bp yield entry is listed as “increased”. In addition, the “potency of DNA polymerase inhibitors (summary comparison of #7261 with derivatives)” value in experiment [4] is reported as “about 75 μM”. Also, in experiment [2], the “secondary products (seen as a smear)” value is “dramatically decreased” and the 320 bp yield result is reported as “increased”.

For orientation: IC50 means the point on the concentration scale where inhibition reaches its midpoint.

Values taken from patent publication US12291511B2, “Polymerase inhibitors and related compositions and methods” (Promega Corporation, priority 2018, dated 2025).
